The values below are quoted from earlier work in patent publication US10517911B2, “Manufacturing methods, compositions, and medical applications of orally administered cannabis pharmaceuticals using representative/total/complete cannabis extractions (cannabis infused pills)” (priority 2016, dated 2019).

Structures are written as SMILES.

The subject of series [1] is methicillin-resistant Staphylococcus aureus (MRSA).
The target of a further series is T1, COX-2 (Homo sapiens, UniProt P35354).
T1 sequence (P35354 18-604): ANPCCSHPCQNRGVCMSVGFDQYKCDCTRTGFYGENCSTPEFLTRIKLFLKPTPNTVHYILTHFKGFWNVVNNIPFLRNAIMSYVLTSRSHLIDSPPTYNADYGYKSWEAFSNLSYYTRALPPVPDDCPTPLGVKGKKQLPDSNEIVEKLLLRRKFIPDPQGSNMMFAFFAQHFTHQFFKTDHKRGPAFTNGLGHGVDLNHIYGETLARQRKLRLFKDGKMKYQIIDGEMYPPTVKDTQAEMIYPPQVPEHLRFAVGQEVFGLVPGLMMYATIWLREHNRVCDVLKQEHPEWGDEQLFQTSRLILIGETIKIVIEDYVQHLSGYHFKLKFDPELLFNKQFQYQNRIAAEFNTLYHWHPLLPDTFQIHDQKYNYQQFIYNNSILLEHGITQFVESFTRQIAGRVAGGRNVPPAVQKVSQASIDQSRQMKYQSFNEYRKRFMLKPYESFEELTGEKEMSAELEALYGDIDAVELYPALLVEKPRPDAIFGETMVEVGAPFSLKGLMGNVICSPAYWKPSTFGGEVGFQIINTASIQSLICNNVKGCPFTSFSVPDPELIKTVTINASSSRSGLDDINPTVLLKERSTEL

A further series has as its target COX-1 (Homo sapiens, UniProt P23219).

Chain of COX-1 (P23219 24-599): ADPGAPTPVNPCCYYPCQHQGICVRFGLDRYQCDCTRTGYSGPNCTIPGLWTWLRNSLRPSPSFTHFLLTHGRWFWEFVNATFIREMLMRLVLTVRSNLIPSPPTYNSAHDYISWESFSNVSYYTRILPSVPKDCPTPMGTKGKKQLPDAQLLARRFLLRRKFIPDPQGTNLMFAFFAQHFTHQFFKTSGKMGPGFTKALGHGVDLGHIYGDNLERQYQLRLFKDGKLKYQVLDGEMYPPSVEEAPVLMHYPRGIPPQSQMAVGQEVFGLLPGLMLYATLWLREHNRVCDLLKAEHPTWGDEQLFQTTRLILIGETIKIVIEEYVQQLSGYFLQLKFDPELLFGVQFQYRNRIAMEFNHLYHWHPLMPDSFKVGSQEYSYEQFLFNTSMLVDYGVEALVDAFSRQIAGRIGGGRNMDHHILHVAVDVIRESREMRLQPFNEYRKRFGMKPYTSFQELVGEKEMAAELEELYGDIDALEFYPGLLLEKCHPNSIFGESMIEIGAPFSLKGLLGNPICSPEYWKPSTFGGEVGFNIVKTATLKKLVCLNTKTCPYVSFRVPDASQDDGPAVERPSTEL

Turning to `C=C(C)[C@@H]1CCC(C)=C[C@H]1c1c(O)cc(CCCCC)cc1O` [Cannabidiol], the “activity against methicillin-resistant Staphylococcus aureus (MRSA)” value in series [1] is reported as “powerful activity”.
Regarding `CCCCCc1cc(O)c2c(c1)OC(C)(C)c1ccc(C)cc1-2` [Cannabinol], the “activity against methicillin-resistant Staphylococcus aureus (MRSA)” value in series [1] was “powerful activity”.
As for `CCCCCc1cc(O)c2c(c1)OC(C)(C)[C@@H]1CCC(C)=C[C@@H]21` [Tetrahydrocannabinol I, Tetrahydrocannabinol], at COX-2, the COX-2 inhibition entry is “no COX-1 or COX-2 inhibition”. The “anti-inflammatory effectiveness relative to aspirin” value (times as effective as aspirin) was 20 times. Further, the “anti-inflammatory effectiveness relative to hydrocortisone” value (times as effective as hydrocortisone) is 2 times. On COX-1, the COX-1 inhibition entry is “no COX-1 or COX-2 inhibition”.
